Assay: gradient 5% acetonitrile 3 min, to 50% in 2 min, to 85% in 15 min, held 3 min, 100 µL/min
Conditions: column: Zorbax Extend-C18 2.1 x 50 mm; eluents: water / acetonitrile, 0.1% formic acid
Procedure, shortened: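 Retention times come from adduct peaks that were picked computationally and then checked by hand. The standards, pure and pooled in mixtures of ~100 molecules, were run on a Zorbax Extend-C18 column (2.1 × 50 mm, 1.8 μm) at 100 μL/min with water and acetonitrile, each with 0.1% formic acid. Detection was by quadrupole time-of-flight mass spectrometry in positive and negative ionization mode, with a dead volume of 40 μL and a dwell volume of 900 μL.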

Row | Structure (SMILES) | RP-LC retention time [s]
1 | COc1ccc(S(=O)(=O)N2CCCC(C(=O)NC(C)C)C2)cc1OC (stereo not drawn) | 720
2 | O=C(Nc1ccc(F)cc1F)N1CCc2nc(-c3ccccc3)ncc2C1 | 881
3 | Cc1nn2c(CNS(=O)(=O)c3cc(F)cc(F)c3)c(-c3ccccc3)nc2s1 | 905
4 | Cc1nc([C@@H]2CN(C(=O)c3cc(C)n(Cc4ccco4)c3C)C[C@H]2C(N)=O)n[nH]1 | 618
5 | O=C(Cn1c(=O)oc2ccccc21)NCc1n[nH]c(=O)c2ccccc12 | 595
6 | CC(C)CNC(=O)N1CCN(c2nc3ccccc3n(Cc3ccccc3)c2=O)CC1 | 986
7 | CN(Cc1nc(Cn2ccn3nc(-c4ccc(F)cc4)cc3c2=O)no1)C1CCCCC1 | 704
8 | Cn1c(=O)c2c(-c3ccc(Cl)cc3)c(C#N)c(N)nc2n(C)c1=O | 814
9 | CCn1c(=O)c(N2CCC(C(=O)NCCc3c[nH]c4ccc(OC)cc34)CC2)nc2cccnc21 | 864
10 | Cc1nc(-c2cccc(-c3noc(-c4ccc5cc[nH]c5c4)n3)c2)cs1 | 1230
11 | Cc1nc2ccc(NC(=O)Cc3ccc4c(c3)OCO4)cc2s1 | 716
12 | COC(=O)c1cc(Nc2ccc(OC)cc2OC)c2ccccc2n1 | 581
13 | O=C(NCc1ccc2c(c1)OCO2)C1CCCN(c2nnc3ccc(Cl)cn23)C1 (stereo not drawn) | 735
14 | Fc1ccc(-c2csc(Cc3nc(-c4cccc(Cl)c4)no3)n2)cc1 | 1310
15 | Cc1ccc(C)c(NC(=O)Nc2ccc3nnc(C)n3c2)c1 | 695
16 | COc1ccc(-c2noc(C3CC(=O)N(c4ccc(OC)c(OC)c4)C3)n2)cc1OC (stereo not drawn) | 743
17 | COc1cc(NC(=O)C2CCN(c3nccnc3Sc3ccccc3)CC2)cc(OC)c1 | 1040
18 | CCCCOc1ccc(C(=O)N2CCCC2c2nc(-c3ccc(OC)cc3)no2)cc1 (stereo not drawn) | 1180
19 | Cc1ccc(S(=O)(=O)N2CCCC2)cc1-c1nnc(-c2ccccc2)o1 | 1010
20 | CCCNC(=O)CCNc1c(-c2ccc(C)cc2)nc2cnccn12 | 654
21 | Cc1ccc(-n2c(N3CCCC(C(=O)NCc4ccc(C)o4)C3)nc3ccsc3c2=O)cc1 (stereo not drawn) | 893
22 | COc1cccc(Cn2nc(-c3nc(-c4ccc(Cl)cc4)no3)ccc2=O)c1 | 1190

Row | Structure (SMILES) | RP-LC retention time [s]
23 | Cc1nc(-c2ccc(NC(=O)N3CCCc4ccccc43)cc2)no1 | 900
24 | COc1cc(NC(=O)c2nnn(-c3cc(OC)cc(OC)c3)c2C)cc(OC)c1 | 1050
25 | COc1ncc(C(=O)NCCc2ccc(S(N)(=O)=O)cc2)cn1 | 608
26 | CCc1noc(NC(C)=O)c1-c1ccc(OC)c(S(=O)(=O)Nc2cccc(C#N)c2)c1 | 738
27 | COc1ccc(-c2noc(C3CC(=O)N(c4ccc(C)c(Cl)c4)C3)n2)cc1 (stereo not drawn) | 1050
28 | CCOC(=O)CCNC(=O)N1CCCC(Cn2cnc3cccnc32)C1 (stereo not drawn) | 604
29 | COc1ccc(-n2c(=O)n(C)c(=O)c3cc(C(=O)Nc4ccc(F)c(F)c4)cnc32)cc1 | 948
30 | COc1ccccc1NC(=O)c1csc2c1CCCC2 | 1190
31 | O=C(Cn1ccnc1-c1ccnc(N2CCSCC2)c1)NC1CCCC1 | 619
32 | CCn1cc(C)c(C(=O)O)c1CC(=O)Nc1cc(C)cc(C)c1 | 907
33 | O=C(c1cccnc1)N1CCN(c2cc(-c3cccs3)[nH]n2)CC1 | 616
34 | COCC(=O)Nc1ccc(-c2nc3cccnc3s2)cc1C | 729
35 | COCCOC(=O)c1cn(-c2cccc(OC)c2)c(=O)c2ccccc12 | 902
36 | N#Cc1ccc(-c2nc(-c3ccc4c(c3)nnn4CCC(=O)N3CCCC3)no2)c(F)c1 | 849
37 | COc1ccccc1-c1nc(COC(=O)C2=CN(Cc3ccccc3)S(=O)(=O)N=C2C)no1 | 1070
38 | COc1ccccc1Cn1cc(C(=O)c2ccccc2)c(=O)c2cc3c(cc21)OCCO3 | 815
39 | Cc1sc(-c2nnc(C(=O)N3CCCC3)o2)cc1S(=O)(=O)N1CCN(C)CC1 | 607
40 | O=C(N[C@H]1C[C@@H]2C[C@H]1N(C(=O)Cc1c(F)cccc1Cl)C2)c1cccnc1 | 695
41 | Cc1ccc(NC(=O)NCC(c2cccnc2)c2cn(C)c3ccccc23)cc1 (stereo not drawn) | 816
42 | COc1cc(NC(=O)CCSc2nc3c(=O)n(C)c(=O)n(C)c3n2C)c(OC)cc1Cl | 735
43 | CC1Cc2ccccc2N1C(=O)c1ccc(=O)n(CCC(=O)NC2CCCCCCC2)n1 (stereo not drawn) | 895
44 | O=C(c1cnc2ccccc2n1)N1CCN(Cc2ccsc2)CC1 | 556

Row | Structure (SMILES) | RP-LC retention time [s]
45 | CCCc1nc(-c2ccccc2)oc1CC(=O)Nc1ccc(Br)cc1F | 1150
46 | COC(=O)c1cc2c(=O)n(-c3cccc(C(F)(F)F)c3)ccc2nc1C | 917
47 | Cc1ccc(N2CCCS2(=O)=O)cc1NS(=O)(=O)c1c(C)noc1C | 866
48 | COc1ccc(-c2cc(N3CCN(C(=O)c4c(F)cccc4Cl)CC3)ncn2)cc1 | 612
49 | CC(C)n1nc(CNC(=O)CNC(=O)c2ccccc2)c2ccccc21 | 740
50 | CCc1nnc(-c2ccc3ccn(CC(=O)Nc4cc(OC)c(OC)c(OC)c4)c3c2)o1 | 777
51 | CCc1ccc(N2CC(c3nc(-c4cc(OC)c(OC)c(OC)c4)no3)CC2=O)cc1 (stereo not drawn) | 988
52 | CN(C)S(=O)(=O)c1ccc(-c2nnc(C(=O)NCc3cccs3)o2)cc1 | 812
53 | CCCn1c(=O)c2cc(C(=O)Nc3cc(Cl)ccc3F)nn2c2ccccc21 | 1220
54 | Cc1ccc(CNC(=O)c2nsc(C(=O)N3CCN(c4ccccn4)CC3)c2N)cc1 | 681
55 | O=C1CC(c2cc(F)cc(F)c2)Cc2nc(N3CCN(c4ccccc4)CC3)ncc21 (stereo not drawn) | 1270
56 | CCOc1ccccc1-c1noc(Cn2cnc3c(cnn3-c3ccccc3)c2=O)n1 | 990
57 | CN1C(=O)c2cc(C(=O)Nc3ccc(F)cc3F)nn2CC1(C)C(=O)NC1CCCCC1 (stereo not drawn) | 732
58 | O=C(NCc1ccco1)C1CN(C(=O)c2ccccc2)CC12CCCCC2 (stereo not drawn) | 795
59 | CC(C)CCNC(=O)c1ccc2c(c1)NC(=O)C1CCCCN21 (stereo not drawn) | 813
60 | O=S(=O)(c1ccccc1F)N1CCC(c2noc(-c3ccc(F)cc3)n2)CC1 | 1110
61 | Cn1ccc2c(cc(C(=O)NCCC3=CCCCC3)n2C)c1=O | 766
62 | Nc1cc(C2CCN(S(=O)(=O)Cc3ccc(F)cc3)CC2)no1 | 747
63 | COc1ccc(OC)c(NC(=O)N(C)CCc2noc(COc3ccc(Cl)cc3)n2)c1 | 1000
64 | CC(C)(C)OC(=O)N1CCN(c2ncnc(N)c2[N+](=O)[O-])CC1 | 691
65 | Cc1ccc(-c2cn3c(CC(=O)NCc4ccc(F)cc4)csc3n2)cc1C | 843
66 | COc1ccc(C(=O)Nc2nc(-c3ccc4c(c3)NC(=O)C(C)O4)cs2)cc1 (stereo not drawn) | 877

Row | Structure (SMILES) | RP-LC retention time [s]
67 | Cc1ccc(C(=O)NC2CCN(c3cc(-c4ccc(Cl)cc4)[nH]n3)C2)cc1C (stereo not drawn) | 860
68 | Cc1cc(C)cc(NC(=O)CN2C(=O)C3CCCCN3c3ccc(S(=O)(=O)N(C)C)cc32)c1 (stereo not drawn) | 994
69 | COc1cccc(CC(=O)NC(C)C(=O)Nc2nc3ccccc3[nH]2)c1 (stereo not drawn) | 640
70 | CCN(CC)S(=O)(=O)c1ccc2c(c1)CC(C(=O)NC1CCCCC1)N2C(C)=O (stereo not drawn) | 839
71 | CCCNC(=O)C1CCN(c2ccc(SCC(=O)Nc3ccc(C)cc3)nn2)CC1 | 645
72 | O=C(c1ccnnc1)N1C[C@@H](COCC2CC2)[C@H](c2ccccn2)C1 | 654
73 | COc1ccc(CN2C=C(C(=O)OCc3noc(-c4ccccc4C)n3)C(C)=NS2(=O)=O)cc1 | 861
74 | CCOC(=O)c1cnc2c(-c3ccc(Cl)cc3)c(CC)nn2c1N | 1280
75 | COc1ccc(N(Cc2nnc3n2CCCCC3)C(=O)Nc2ccccc2)cc1OC | 692
76 | Cn1nnnc1C1CCCN(S(=O)(=O)Cc2ccccc2)C1 (stereo not drawn) | 751
77 | COc1ccc(NC(=O)CCS(=O)(=O)Cc2ccccc2)c2ccccc12 | 688
78 | O=C(NCc1ccc(F)cc1)NCc1cccn1Cc1cccc(F)c1 | 680
79 | O=C(O)[C@@H]1OCCN(C2CC2)[C@H]1c1ccccc1 | 545
80 | O=C(Cn1nc2c(N3CCSCC3)nccn2c1=O)NC1CCCC1 | 722
81 | Cc1nc(-c2ccccc2)sc1C(=O)Nc1nc(-c2ccccc2Cl)cs1 | 1310
82 | O=C(c1ccc2c(c1)OCO2)N1CCC2(CC1)N=C(c1ccccc1)NO2 | 858
83 | COc1ccc(S(=O)(=O)N2CCC(C(=O)N[C@@H](C)C(=O)O)CC2)cc1 | 652
84 | O=C(NCCCn1ncccc1=O)c1coc(NC(=O)c2cnccn2)n1 | 554
85 | O=C(NC1CC1)c1ccc2c(c1)CCN2C(=O)C1CC1 | 673
86 | CCCN1C(=O)COc2ccc(-c3noc(-c4cccc(NC(C)=O)c4C)n3)cc21 | 872
87 | Cc1ccc(-c2nnc(-c3cccc(S(=O)(=O)N4CCCC4)c3)o2)cc1 | 1010
88 | CC(C)Oc1ccc(CNC(=O)c2ccc3c(c2)N(C)C(=O)c2ccccc2O3)cc1 | 958
